Data on twelve molecules can be found in ChEMBL document CHEMBL3217733, “Synthesis of precursors and macrocycle analogs of aerucyclamides as anti-trypanosomal agents” (Medchemcomm, 2012).

The test system of series [1] is Trypanosoma brucei brucei. The series can be described thus: Antitrypanosomal activity against Trypanosoma brucei brucei strain 427 assessed as growth inhibition at 25 uM. It counts as functional. The note with it: read-out: GI.
Series [2] concerns Trypanosoma brucei brucei. The series can be described thus: Antitrypanosomal activity against infective form of Trypanosoma brucei brucei strain 427 assessed as growth inhibition. It counts as functional, organism-based.
Series [3] relates to J774. The series can be described thus: Cytotoxicity against […] mouse J774 cells after 24 hrs by WST1 assay. It counts as cell-based. As to conditions: J774, 24 h.
Series [4] in a line: Selectivity index, ratio of EC50 for mouse J774 cells to EC50 for infective form of Trypanosoma brucei brucei strain 427. It counts as toxicity, cell-based. As to conditions: read-out: Ratio EC50.

pEC50: −log10 of the molar value.

On to `CC[C@H](C)[C@@H]1NC(=O)c2coc(n2)[C@H]([C@@H](C)CC)NC(=O)c2coc(n2)[C@H]([C@@H](C)CC)NC(=O)c2coc1n2`, for which the inhibition of growth at 25 µM in series [1] was 13.5%.

For `CC[C@H](C)[C@@H]1NC(=O)c2csc(n2)[C@H]([C@@H](C)CC)NC(=O)c2csc(n2)CNC(=O)c2nc1oc2C` [MACROCYCLE], the inhibition of growth at 25 µM in series [1] came out at 41.7%.

`CC[C@H](C)[C@H](NC(=O)c1csc(CNC(=O)OC(C)(C)C)n1)c1nc(C(=O)OC)co1`: the inhibition of growth at 25 µM in series [1] was found to be 8.1%.

On to `CC[C@H](C)[C@H](NC(=O)c1csc([C@@H](NC(=O)c2csc(CNC(=O)OC(C)(C)C)n2)[C@@H](C)CC)n1)c1nc(C(=O)OC)co1`, for which the inhibition of growth at 25 µM in series [1] stood at 20.9%.

Consider `CC[C@H](C)[C@H](NC(=O)c1csc(CNC(=O)OC(C)(C)C)n1)c1nc(C(=O)N[C@H](c2nc(C(=O)OC)co2)[C@@H](C)CC)co1`, for which the inhibition of growth at 25 µM in series [1] turned out to be 18.3%.

On to `CC[C@H](C)[C@H](NC(=O)c1csc([C@@H](NC(=O)c2csc(CNC(=O)OC(C)(C)C)n2)[C@@H](C)CC)n1)c1nc(C(=O)OC)c(C)o1`, for which, in series [1], the inhibition of growth at 25 µM was found to be 79.1%. Besides, the pEC50 in series [2] is 5.22; in series [3], 3.04. Besides, the selectivity ratio in series [4] was 150.

Regarding `CC[C@H](C)[C@@H]1NC(=O)c2coc(n2)[C@H]([C@@H](C)CC)NC(=O)c2csc(n2)CNC(=O)c2coc1n2`, in series [1], the inhibition of growth at 25 µM came to 16.2%.

For `CC[C@H](C)[C@@H]1NC(=O)c2csc(n2)[C@H]([C@@H](C)CC)NC(=O)c2csc(n2)CNC(=O)c2coc1n2`, in series [1], the inhibition of growth at 25 µM is 100%. In addition, the negative logarithm of the EC50 (pEC50) in series [2] was 4.94; in series [3], 4.31. In addition, the selectivity ratio in series [4] was determined as 4.3.

Consider `CC[C@H](C)[C@H](NC(=O)c1csc(CNC(=O)OC(C)(C)C)n1)c1nc(C(=O)OC)cs1`, for which the inhibition of growth at 25 µM in series [1] came out at 11.5%.

For the molecule `CC[C@H](C)[C@H](NC(=O)c1csc([C@@H](NC(=O)OC(C)(C)C)[C@@H](C)CC)n1)c1nc(C(=O)OC)co1`, the inhibition of growth at 25 µM in series [1] was determined as 41.1%.

Regarding `CCOC(=O)c1csc(CNC(=O)OC(C)(C)C)n1`, the inhibition of growth at 25 µM in series [1] was determined as 26.4%.

On to `CN(C)c1ccc2nc3ccc(=[N+](C)C)cc-3sc2c1` [METHYLENE BLUE CATION], for which, in series [2], the negative-log EC50 (pEC50) was 6.40.

A word on the pEC50: it is −log10 of the EC50, conventionally taken in molar units.
